We go through 10 compounds from the Kinase Knowledgebase extract (Sharma et al. 2016).

The target of one experiment is EGFR (human) (UniProt P00533).
For a further experiment, the target named is CDK2 (Human) (UniProt P24941). Kind of experiment: Enzyme Assay.

Sequence of EGFR (human) (P00533 whole entry, looked up): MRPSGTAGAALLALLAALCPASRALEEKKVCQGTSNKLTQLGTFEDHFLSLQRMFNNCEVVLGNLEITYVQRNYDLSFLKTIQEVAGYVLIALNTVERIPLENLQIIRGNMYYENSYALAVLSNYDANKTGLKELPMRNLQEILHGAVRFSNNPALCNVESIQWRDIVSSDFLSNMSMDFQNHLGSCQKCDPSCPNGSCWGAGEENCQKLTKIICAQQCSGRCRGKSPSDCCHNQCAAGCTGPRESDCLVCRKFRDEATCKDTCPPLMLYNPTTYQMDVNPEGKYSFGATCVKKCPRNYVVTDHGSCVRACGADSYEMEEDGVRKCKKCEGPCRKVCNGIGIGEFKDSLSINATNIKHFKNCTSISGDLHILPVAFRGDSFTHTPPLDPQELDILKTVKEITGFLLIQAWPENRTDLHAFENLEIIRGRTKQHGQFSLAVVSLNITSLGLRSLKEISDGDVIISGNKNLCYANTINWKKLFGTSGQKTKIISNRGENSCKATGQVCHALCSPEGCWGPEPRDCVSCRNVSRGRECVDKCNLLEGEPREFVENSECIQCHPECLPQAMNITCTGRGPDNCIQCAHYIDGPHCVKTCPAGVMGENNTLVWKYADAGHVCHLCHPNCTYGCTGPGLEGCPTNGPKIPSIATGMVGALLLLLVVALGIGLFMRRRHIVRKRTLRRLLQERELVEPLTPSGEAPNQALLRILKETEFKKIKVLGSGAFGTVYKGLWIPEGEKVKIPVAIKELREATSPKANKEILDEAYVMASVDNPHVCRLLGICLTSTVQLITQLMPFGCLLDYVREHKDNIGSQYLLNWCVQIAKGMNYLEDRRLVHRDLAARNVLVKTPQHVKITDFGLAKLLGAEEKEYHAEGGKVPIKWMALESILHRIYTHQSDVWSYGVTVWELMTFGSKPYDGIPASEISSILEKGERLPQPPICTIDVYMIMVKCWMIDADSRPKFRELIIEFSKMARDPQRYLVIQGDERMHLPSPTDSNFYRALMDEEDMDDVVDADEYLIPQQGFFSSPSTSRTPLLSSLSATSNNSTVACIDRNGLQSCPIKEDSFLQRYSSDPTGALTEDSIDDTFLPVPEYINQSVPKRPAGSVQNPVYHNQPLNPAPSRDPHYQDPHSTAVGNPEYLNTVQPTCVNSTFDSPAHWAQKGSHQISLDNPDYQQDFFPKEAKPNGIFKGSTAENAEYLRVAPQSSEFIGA

The term IC50 denotes the midpoint of a concentration-inhibition curve. High values mean a need for much substance, low ones inhibition by little substance. As to `Cc1[nH]nc2c1N=C(c1ccccc1Cl)c1cc(N)ccc1N2`, the IC50 is 989 nM at EGFR (human) and 88 nM at CDK2 (Human). In the same order, the values of `CC(=O)Nc1ccc2c(c1)C(c1ccccc1Cl)=Nc1c(n[nH]c1C)N2` are 726 nM and 38 nM. Consider `Cc1[nH]nc2c1N=C(c1ccccc1Cl)c1cc(NS(C)(=O)=O)ccc1N2`, for which the IC50 against CDK2 (Human) was 24 nM. The compound `Cc1[nH]nc2c1N=C(c1ccccc1F)c1cc(Cl)ccc1N2` displayed an IC50 at CDK2 (Human) of 190 nM. On CDK2 (Human), `Cc1[nH]nc2c1N=C(c1ccccc1Cl)c1cc(Cl)ccc1N2` yielded an IC50 of 440 nM.

`COc1ccc2c(c1)C(c1ccccc1Cl)=Nc1c(n[nH]c1C)N2`: the IC50 against CDK2 (Human) is 320 nM. The compound `Cc1[nH]nc2c1N=C(c1ccccc1F)c1cc(C(N)=O)ccc1N2` returned an IC50 at CDK2 (Human) of 17 nM.

Consider `Cc1[nH]nc2c1N=C(c1ccccc1Cl)c1cc(NS(=O)(=O)N(C)C)ccc1N2`, for which, at CDK2 (Human), the IC50 turned out to be 46 nM.

On CDK2 (Human), `Cc1[nH]nc2c1N=C(c1ccccc1)c1cc(Cl)ccc1N2` gave an IC50 of 490 nM. For `Cc1[nH]nc2c1N=C(c1ccccc1F)c1cc(C#N)ccc1N2`, the figures for the IC50 against EGFR (human) and against CDK2 (Human) were 10900 nM and 16 nM, respectively.
